For 14 compounds, GI50 and TGI results are on record in PubChem BioAssay (NCI).

“And” between values parts separate entries of the source, which are not always exact repeats. Equal entries are not always repeated.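 Tested at 5 concentrations; 48 h exposure; 96-well plates; endpoints linearly interpolated, else capped at highest concentration. Abbreviation: GI50, concentration required for 50% inhibition of growth. Definition used: TGI = concentration required for complete inhibition of growth.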

As usually defined, the GI50 is the concentration that inhibits growth by half. Usually TGI stands for the concentration giving total growth inhibition.

The first experiment concerns HCC-2998 colon. The experiment is described as follows: DTP human tumour cell line panel, 48 h.
On to `O=S(=O)(CCOCc1ccc(-c2ccc3ncnc(Nc4ccc(OCc5cccc(F)c5)c(Cl)c4)c3c2)o1)c1ccccc1`, for which the GI50 is over 25 µM and the TGI is over 25 µM.

On to `CNC(=O)c1cc2c(Oc3ccc(NC(=O)C4(C(=O)Nc5ccc(F)cc5)CC4)cc3)ccnc2cc1OC`, for which the GI50 is 5.61 µM and the TGI is over 100 µM.

For the compound `O=S1(=O)NCCCN1CCNc1nccc(-c2c(-c3cccc(O)c3)nc3sccn23)n1`, the GI50 is 31.3 µM and the TGI is over 92 µM.

Take `O=C(c1ccc2ccccc2c1)c1c(C(F)(F)F)n([O-])c2ccc(Cl)cc2[n+]1=O`: the GI50 was 1.26 µM and the TGI was determined as 2.6 µM.

In turn, `Cc1cn(C2OC(C)(CO)C(O)C2O)c(=O)[nH]c1=O` (centres undefined) yielded a TGI of over 100 µM.

Consider `NC(=O)c1cccc(Nc2nccc(Nc3cccc(F)c3)n2)c1`, for which the GI50 was 18.5 µM and the TGI was over 25 µM.

Consider `CCN(CC)CCNC(=O)c1c(C)[nH]c(/C=C2\C(=O)Nc3ccc(F)cc32)c1C`, for which the TGI is > 10 µM and 7.03 µM and 3.06 µM.

For the compound `C[C@H](Cn1ncnn1)Nc1ncc2cc(Oc3ccc(F)cc3F)c(=O)n(C)c2n1`, the GI50 was over 25 µM and the TGI was over 25 µM.

`N=S(c1ccccc1)c1ccccc1[N+](=O)[O-]` (centres undefined) displayed a total growth inhibition concentration (TGI) of 33.4 µM.

Compound `Cc1ccc(S(=O)(=O)N/N=C(\c2nc3ccc([N+](=O)[O-])cc3[nH]c2=O)C(O)c2ccccc2Cl)cc1` (centres undefined) yielded a TGI of over 100 µM.

For the compound `COC1OC(C)C(OCc2ccccc2)C(OS(=O)(=O)c2ccc(C)cc2)C1OS(=O)(=O)c1ccc(C)cc1` (centres undefined), the concentration for total growth inhibition (TGI) is over 100 µM.

Consider `Cc1ncc(C(=O)Nc2ccc(CN3CCN(C)CC3)c(C(F)(F)F)c2)cc1C#Cc1cnc(NC2CC2)c2ncccc12`, for which the GI50 is 1.27 µM and the TGI is 2.88 µM.

As for `CCCCCCCCCCN=C(c1ccc(N(C)C)cc1)c1ccc(N(C)C)cc1`, the GI50 is 5.07 µM and the TGI is over 88.6 µM.

For the compound `CCCCCCCCCCCCCCCCCCNC(=O)[C@H]1CSC(c2cccs2)N1` (some centres undefined), the GI50 was 1.06 µM and the TGI was found to be 2.31 µM.

The subject of the next experiment is SR leukemia. The experiment is described as follows: DTP human tumour cell line panel, 48 h.
`O=S(=O)(CCOCc1ccc(-c2ccc3ncnc(Nc4ccc(OCc5cccc(F)c5)c(Cl)c4)c3c2)o1)c1ccccc1`: the GI50 was over 25 µM and the concentration for total growth inhibition (TGI) is over 25 µM.

For the compound `CNC(=O)c1cc2c(Oc3ccc(NC(=O)C4(C(=O)Nc5ccc(F)cc5)CC4)cc3)ccnc2cc1OC`, the GI50 was 2.05 µM and the TGI is 5.99 µM.

For `O=S1(=O)NCCCN1CCNc1nccc(-c2c(-c3cccc(O)c3)nc3sccn23)n1`, the GI50 is 5.55 µM and the TGI was determined as 59.3 µM.

For `O=C(c1ccc2ccccc2c1)c1c(C(F)(F)F)n([O-])c2ccc(Cl)cc2[n+]1=O`, the GI50 was 0.438 µM and the TGI came out at 1.34 µM.

For `Cc1cn(C2OC(C)(CO)C(O)C2O)c(=O)[nH]c1=O` (centres undefined), the TGI is over 100 µM.

On to `NC(=O)c1cccc(Nc2nccc(Nc3cccc(F)c3)n2)c1`, for which the GI50 was 7.1 µM and the TGI is over 25 µM.

`CCN(CC)CCNC(=O)c1c(C)[nH]c(/C=C2\C(=O)Nc3ccc(F)cc32)c1C`: the GI50 was 1.97 µM and 4.56 µM and 1.27 µM; the total growth inhibition concentration (TGI) is 5.11 µM and 14.2 µM and 3.74 µM.

Turning to `C[C@H](Cn1ncnn1)Nc1ncc2cc(Oc3ccc(F)cc3F)c(=O)n(C)c2n1`, the GI50 was over 25 µM and the TGI is over 25 µM.

In turn, `N=S(c1ccccc1)c1ccccc1[N+](=O)[O-]` (centres undefined) showed a TGI of 50.1 µM.

`Cc1ccc(S(=O)(=O)N/N=C(\c2nc3ccc([N+](=O)[O-])cc3[nH]c2=O)C(O)c2ccccc2Cl)cc1` (centres undefined) yielded a TGI of over 100 µM.

In the case of `COC1OC(C)C(OCc2ccccc2)C(OS(=O)(=O)c2ccc(C)cc2)C1OS(=O)(=O)c1ccc(C)cc1` (centres undefined), the TGI is over 100 µM.

For the compound `Cc1ncc(C(=O)Nc2ccc(CN3CCN(C)CC3)c(C(F)(F)F)c2)cc1C#Cc1cnc(NC2CC2)c2ncccc12`, the GI50 is 0.493 µM and the TGI turned out to be 1.27 µM.

Take `CCCCCCCCCCN=C(c1ccc(N(C)C)cc1)c1ccc(N(C)C)cc1`: the GI50 is 0.211 µM and the concentration for total growth inhibition (TGI) was over 46.8 µM.

On to `CCCCCCCCCCCCCCCCCCNC(=O)[C@H]1CSC(c2cccs2)N1` (some centres undefined), for which the GI50 was 0.94 µM and the TGI was found to be 2.62 µM.

The subject of a further experiment is SNB-19 CNS. Kind of experiment: DTP human tumour cell line panel, 48 h.
For the compound `O=S(=O)(CCOCc1ccc(-c2ccc3ncnc(Nc4ccc(OCc5cccc(F)c5)c(Cl)c4)c3c2)o1)c1ccccc1`, the GI50 was over 25 µM and the TGI was over 25 µM.

Consider `CNC(=O)c1cc2c(Oc3ccc(NC(=O)C4(C(=O)Nc5ccc(F)cc5)CC4)cc3)ccnc2cc1OC`, for which the GI50 was 8.02 µM and the TGI was over 100 µM.

Turning to `O=S1(=O)NCCCN1CCNc1nccc(-c2c(-c3cccc(O)c3)nc3sccn23)n1`, the GI50 is over 92.5 µM and the concentration for total growth inhibition (TGI) was over 100 µM.

For the compound `O=C(c1ccc2ccccc2c1)c1c(C(F)(F)F)n([O-])c2ccc(Cl)cc2[n+]1=O`, the GI50 is 1.69 µM and the TGI was 3.07 µM.

Take `Cc1cn(C2OC(C)(CO)C(O)C2O)c(=O)[nH]c1=O` (centres undefined): the total growth inhibition concentration (TGI) was over 100 µM.

Consider `NC(=O)c1cccc(Nc2nccc(Nc3cccc(F)c3)n2)c1`, for which the GI50 is 18.6 µM and the TGI was over 25 µM.

Consider `CCN(CC)CCNC(=O)c1c(C)[nH]c(/C=C2\C(=O)Nc3ccc(F)cc32)c1C`, for which the GI50 is > 10 µM and 5.36 µM and 11.4 µM; the concentration for total growth inhibition (TGI) is > 10 µM and 16.3 µM and 25.6 µM.

As for `C[C@H](Cn1ncnn1)Nc1ncc2cc(Oc3ccc(F)cc3F)c(=O)n(C)c2n1`, the GI50 is over 25 µM and the TGI is over 25 µM.

`N=S(c1ccccc1)c1ccccc1[N+](=O)[O-]` (centres undefined) came in with a TGI of 35.2 µM.

Compound `Cc1ccc(S(=O)(=O)N/N=C(\c2nc3ccc([N+](=O)[O-])cc3[nH]c2=O)C(O)c2ccccc2Cl)cc1` (centres undefined) came in with a TGI of over 100 µM.

Consider `COC1OC(C)C(OCc2ccccc2)C(OS(=O)(=O)c2ccc(C)cc2)C1OS(=O)(=O)c1ccc(C)cc1` (centres undefined), for which the TGI was over 100 µM.

Regarding `Cc1ncc(C(=O)Nc2ccc(CN3CCN(C)CC3)c(C(F)(F)F)c2)cc1C#Cc1cnc(NC2CC2)c2ncccc12`, the GI50 is 0.713 µM and the total growth inhibition concentration (TGI) was found to be 1.32 µM.

In the case of `CCCCCCCCCCN=C(c1ccc(N(C)C)cc1)c1ccc(N(C)C)cc1`, the GI50 is 1.06 µM and the TGI is over 76 µM.

On to `CCCCCCCCCCCCCCCCCCNC(=O)[C@H]1CSC(c2cccs2)N1` (some centres undefined), for which the GI50 was 3.6 µM and the TGI was over 50 µM.

The test system of the next experiment is COLO 205 colon. The experiment is described as follows: DTP human tumour cell line panel, 48 h.
As to `O=S(=O)(CCOCc1ccc(-c2ccc3ncnc(Nc4ccc(OCc5cccc(F)c5)c(Cl)c4)c3c2)o1)c1ccccc1`, the GI50 was over 25 µM and the concentration for total growth inhibition (TGI) was over 25 µM.

Regarding `CNC(=O)c1cc2c(Oc3ccc(NC(=O)C4(C(=O)Nc5ccc(F)cc5)CC4)cc3)ccnc2cc1OC`, the GI50 was 2.23 µM and the TGI worked out at 9.13 µM.

Turning to `O=S1(=O)NCCCN1CCNc1nccc(-c2c(-c3cccc(O)c3)nc3sccn23)n1`, the GI50 was 0.581 µM and the TGI came to 27.4 µM.

Consider `O=C(c1ccc2ccccc2c1)c1c(C(F)(F)F)n([O-])c2ccc(Cl)cc2[n+]1=O`, for which the GI50 was 1.34 µM and the TGI is 2.73 µM.

In turn, `Cc1cn(C2OC(C)(CO)C(O)C2O)c(=O)[nH]c1=O` (centres undefined) gave a TGI of over 100 µM.

For `NC(=O)c1cccc(Nc2nccc(Nc3cccc(F)c3)n2)c1`, the GI50 is 6.73 µM and the TGI is over 17.9 µM.

For the compound `CCN(CC)CCNC(=O)c1c(C)[nH]c(/C=C2\C(=O)Nc3ccc(F)cc32)c1C`, the GI50 is 3.57 µM and 2.98 µM and 3.39 µM; the TGI is > 10 µM and 5.84 µM and 8.8 µM.

As for `C[C@H](Cn1ncnn1)Nc1ncc2cc(Oc3ccc(F)cc3F)c(=O)n(C)c2n1`, the GI50 was over 25 µM and the TGI was over 25 µM.

`N=S(c1ccccc1)c1ccccc1[N+](=O)[O-]` (centres undefined) registered a TGI of 34 µM.

The compound `Cc1ccc(S(=O)(=O)N/N=C(\c2nc3ccc([N+](=O)[O-])cc3[nH]c2=O)C(O)c2ccccc2Cl)cc1` (centres undefined) registered a concentration for total growth inhibition (TGI) of over 100 µM.

Consider `COC1OC(C)C(OCc2ccccc2)C(OS(=O)(=O)c2ccc(C)cc2)C1OS(=O)(=O)c1ccc(C)cc1` (centres undefined), for which the TGI was over 100 µM.

In the case of `Cc1ncc(C(=O)Nc2ccc(CN3CCN(C)CC3)c(C(F)(F)F)c2)cc1C#Cc1cnc(NC2CC2)c2ncccc12`, the GI50 is 1.36 µM and the TGI worked out at 4.51 µM.

Consider `CCCCCCCCCCN=C(c1ccc(N(C)C)cc1)c1ccc(N(C)C)cc1`, for which the GI50 is 0.933 µM and the concentration for total growth inhibition (TGI) is 15.7 µM.

For `CCCCCCCCCCCCCCCCCCNC(=O)[C@H]1CSC(c2cccs2)N1` (some centres undefined), the GI50 was over 50 µM and the TGI is over 50 µM.

The test system of another experiment is SF-539 CNS. The experiment is described as follows: DTP human tumour cell line panel, 48 h.
For `O=S(=O)(CCOCc1ccc(-c2ccc3ncnc(Nc4ccc(OCc5cccc(F)c5)c(Cl)c4)c3c2)o1)c1ccccc1`, the GI50 was over 25 µM and the TGI is over 25 µM.

As for `CNC(=O)c1cc2c(Oc3ccc(NC(=O)C4(C(=O)Nc5ccc(F)cc5)CC4)cc3)ccnc2cc1OC`, the GI50 was 0.463 µM and the TGI is 6.56 µM.

As to `O=S1(=O)NCCCN1CCNc1nccc(-c2c(-c3cccc(O)c3)nc3sccn23)n1`, the GI50 is 33.5 µM and the TGI was over 100 µM.

With `O=C(c1ccc2ccccc2c1)c1c(C(F)(F)F)n([O-])c2ccc(Cl)cc2[n+]1=O`, the GI50 is 1.58 µM and the TGI came to 2.92 µM.

Consider `Cc1cn(C2OC(C)(CO)C(O)C2O)c(=O)[nH]c1=O` (centres undefined), for which the TGI was over 100 µM.

For `NC(=O)c1cccc(Nc2nccc(Nc3cccc(F)c3)n2)c1`, the GI50 was 11.3 µM and the TGI was over 25 µM.

With `CCN(CC)CCNC(=O)c1c(C)[nH]c(/C=C2\C(=O)Nc3ccc(F)cc32)c1C`, the GI50 is 1.38 µM and 2.36 µM and 1.21 µM; the TGI was 6.7 µM and 5.41 µM and 2.72 µM.

For the compound `C[C@H](Cn1ncnn1)Nc1ncc2cc(Oc3ccc(F)cc3F)c(=O)n(C)c2n1`, the GI50 was over 25 µM and the TGI was over 25 µM.

`N=S(c1ccccc1)c1ccccc1[N+](=O)[O-]` (centres undefined) displayed a TGI of 37.8 µM.

With `Cc1ccc(S(=O)(=O)N/N=C(\c2nc3ccc([N+](=O)[O-])cc3[nH]c2=O)C(O)c2ccccc2Cl)cc1` (centres undefined), the TGI was over 100 µM.

The compound `COC1OC(C)C(OCc2ccccc2)C(OS(=O)(=O)c2ccc(C)cc2)C1OS(=O)(=O)c1ccc(C)cc1` (centres undefined) gave a TGI of over 100 µM.

As to `Cc1ncc(C(=O)Nc2ccc(CN3CCN(C)CC3)c(C(F)(F)F)c2)cc1C#Cc1cnc(NC2CC2)c2ncccc12`, the GI50 was 0.612 µM and the TGI is 1.11 µM.

Turning to `CCCCCCCCCCN=C(c1ccc(N(C)C)cc1)c1ccc(N(C)C)cc1`, the GI50 was 0.832 µM and the TGI is 5.47 µM.

In the case of `CCCCCCCCCCCCCCCCCCNC(=O)[C@H]1CSC(c2cccs2)N1` (some centres undefined), the GI50 is 1.71 µM and the TGI is 7.85 µM.
